# Reference: publication PMC5502055, “Phase II study of lanreotide autogel in Japanese patients with unresectable or metastatic well-differentiated neuroendocrine tumors” (Investigational New Drugs, 2017)
# Experiments:
# [1] = test system: Japanese patients with grade (G) 1/G2 NET; test: Phase II and extension study: anti-tumor efficacy by RECIST ver. 1.1 (CBR, PFS, OS, ORR, sum of target lesion diameters); type: in vivo, human
# Method: A phase II, multicenter, single-arm study was conducted at 10 sites in Japan. Patients were treated via deep subcutaneous (buttocks) injection of lanreotide at a dosage of 120 mg once every 4 weeks for a 48-week period. Patients who completed the phase II study were enrolled in an additional multicenter single-arm extension study that used the same dosage and injection methods and involved 7 of the 10 initial sites.
# Japanese patients with G1 or 2 (mild/moderate malignancy) NET and an age of ≥20 years were selected for the phase II study according to the World Health Organization (WHO) 2010 classification except for those whose primary tumors were located in the lungs, bronchi, or thymus (according to the WHO 2004 classification). Other inclusion criteria were the following: metastatic disease and/or a locally advanced inoperable tumor, or refusal of surgery, and target lesions based on the Response Evaluation Criteria in Solid Tumors (RECIST) ver.1.1, and a score of 0–2 on the WHO performance status. The exclusion criteria are described in the Electronic Supplementary Material. These criteria allowed the enrolment of the same target population as that of the CLARINET study: patients with G1 or 2 NET with primary tumor sites in the pancreas, midgut, hindgut, or unknown; non-functional NET except gastrinomas adequately controlled by proton pump inhibitors for 4 months or longer; and absence of multiple endocrine neoplasia.
# (§1) The primary endpoint was the clinical benefit rate (CBR) at 24 weeks after the first injection, which served to indicate and confirm the anti-tumor effects of lanreotide. The CBR was defined as the percentage of patients in the analysis set who achieved a complete response or partial response (PR) as the best overall response, or those who maintained stable disease (SD) over 24 weeks after the first injection by central review. Secondary efficacy endpoints were progression-free survival (PFS), overall survival (OS), objective response rate (ORR), and the percent change from baseline in the sum of the diameters of target lesion from baseline. The PFS was defined as the time from the first injection until progressive disease (PD) or death. Regarding tumor lesion imaging ≥4 weeks before the baseline, the investigators evaluated computed tomography (CT) or magnetic resonance imaging (MRI) data based on the RECIST (ver. 1.1). To evaluate anti-tumor effects after baseline, CT or MRI data were evaluated centrally by an independent third party based on the RECIST (ver. 1.1). During the study period, images of each patient were determined using the same method (CT or MRI), according to the standardized procedure at each site. CT or MRI was conducted every 12 weeks from the first injection. Regarding quality of life (QOL), patients completed the European Organization for Research and Treatment of Cancer (EORTC) QOL questionnaire (QLQ)-C30 (ver. 3.0) every 12 weeks during the 48 -week period after the first injection and every 24 weeks thereafter.
# Full analysis set (FAS) and CLARINET-like FAS which was satisfied eligibility criteria of the CLARINET study were used for efficacy analysis. Safety analysis set which included patients who had received the study drug at least once was used for safety analysis. Per protocol set (PPS) was used for pharmacokinetic analysis.
# In the primary analysis, the CBR point estimate at 24 weeks after the first injection and an exact F distribution-based 95% confidence interval (CI) were calculated. The CBR was selected as the primary endpoint, because maintaining SD was deemed beneficial and clinically meaningful for NET patients. In the secondary analysis, Kaplan–Meier curves of PFS and OS were prepared, and median values and 95% CIs were calculated. The ORRs at 24, 48, and 60 weeks after the first injection were also calculated. […]
# [2] = test system: Japanese patients with grade (G) 1/G2 NET; test: Quality of life, EORTC QLQ-C30 (ver. 3.0); type: in vivo, human; conditions: EORTC QLQ-C30, individual terms
# Text: as §1, with “The PFS was defined as the time from the first injection until progressive disease (PD) or death.” left out, “CT or MRI was conducted every 12 weeks from the first injection. Regarding quality of life (QOL), patients completed the European Organization for Research and Treatment of Cancer (EORTC) QOL questionnaire (QLQ)-C30 (ver. 3.0) every 12 weeks during the 48 -week period after the first injection and every 24 weeks thereafter.” left out
# In the primary analysis, the CBR point estimate at 24 weeks after the first injection and an exact F distribution-based 95% confidence interval (CI) were calculated. […] The ORRs at 24, 48, and 60 weeks after the first injection were also calculated. […]
# [3] = FAS n=28, printed as decreased by
compound,measurement,setting,value
CC(C)[C@@H]1NC(=O)[C@H](CCCCN)NC(=O)[C@@H](Cc2c[nH]c3ccccc23)NC(=O)[C@H](Cc2ccc(O)cc2)NC(=O)[C@@H](NC(=O)[C@H](N)Cc2ccc3ccccc3c2)CSSC[C@@H](C(=O)N[C@H](C(N)=O)[C@@H](C)O)NC1=O [lanreotide],clinical benefit rate (CBR) at 24 weeks after the first injection,"[1]; 120 mg deep s.c. every 4 weeks, full analysis set, 18/28 patients, 95% CI 44.1%, 81.4%, central review",64.3%
same,CBR at 24 weeks after the first injection,"[1]; CLARINET-like FAS, 15/22 patients, 95% CI 45.1%, 86.1%",68.2%
same,median PFS,"[1]; FAS n=28, Kaplan-Meier",9.1 months
same,median PFS,"[1]; FAS n=28, Kaplan-Meier, 95% CI 24.1, 53.1 weeks",36.3 weeks
same,"percentage change from baseline in sum of diameters of target lesion at best time point, mean ± SD (decrease)",[1]; [3],3.6 ± 21.3%
same,"percentage change from baseline in sum of diameters of target lesion at best time point, minimum value (decrease)",[1]; [3],58.5%
same,"percentage change from baseline in sum of diameters of target lesion at best time point, maximum value (increase)","[1]; FAS n=28, printed as increased by",53.4%
same,CBR Week 24,"[1]; FAS subgroup Age (years) >65, 7/12",58.3 (7/12) %
same,Median time PFS,"[1]; FAS subgroup Age (years) >65, N=12, median (95% CI)",36.64 weeks
same,CBR Week 24,"[1]; FAS subgroup Age (years) ≤65, 11/16",68.8 (11/16) %
same,Median time PFS,"[1]; FAS subgroup Age (years) ≤65, N=16, median (95% CI)","36.29 (12.29, 53.14) weeks"
same,CBR Week 24,"[1]; FAS subgroup Baseline TGR (%/month) <10, 10/13",76.9 (10/13) %
same,Median time PFS,"[1]; FAS subgroup Baseline TGR (%/month) <10, N=13, median (95% CI)",59.43 weeks
same,CBR Week 24,"[1]; FAS subgroup Baseline TGR (%/month) ≥10, 8/15",53.3 (8/15) %
same,Median time PFS,"[1]; FAS subgroup Baseline TGR (%/month) ≥10, N=15, median (95% CI)","35.29 (12.14, 37.14) weeks"
same,CBR Week 24,"[1]; FAS subgroup Grade of tumor Grade 1, 5/9",55.6 (5/9) %
same,CBR Week 24,"[1]; FAS subgroup Grade of tumor Grade 2, 13/19",68.4 (13/19) %
same,Median time PFS,"[1]; FAS subgroup Grade of tumor Grade 2, N=19, median (95% CI)","36.29 (21.29, 49.14) weeks"
same,CBR Week 24,"[1]; FAS subgroup Hepatic tumor load (%) >10 and ≤25, 4/6",66.7 (4/6) %
same,Median time PFS,"[1]; FAS subgroup Hepatic tumor load (%) >10 and ≤25, N=6, median (95% CI)",35.79 weeks
same,CBR Week 24,"[1]; FAS subgroup Hepatic tumor load (%) >25 and ≤50, 1/3",33.3 (1/3) %
same,Median time PFS,"[1]; FAS subgroup Hepatic tumor load (%) >25 and ≤50, N=3, median (95% CI)","25.14 (24.14, 37.14) weeks"
same,CBR Week 24,"[1]; FAS subgroup Hepatic tumor load (%) >50, 1/1",100.0 (1/1) %
same,CBR Week 24,"[1]; FAS subgroup Hepatic tumor load (%) ≥0 and ≤10, 12/18",66.7 (12/18) %
same,Median time PFS,"[1]; FAS subgroup Hepatic tumor load (%) ≥0 and ≤10, N=18, median (95% CI)","36.36 (21.29, 59.43) weeks"
same,CBR Week 24,"[1]; FAS subgroup Ki67 index (%) >2 and ≤5, 5/8",62.5 (5/8) %
same,Median time PFS,"[1]; FAS subgroup Ki67 index (%) >2 and ≤5, N=8, median (95% CI)",42.72 weeks
same,CBR Week 24,"[1]; FAS subgroup Ki67 index (%) >5 and <10, 8/9",88.9 (8/9) %
same,Median time PFS,"[1]; FAS subgroup Ki67 index (%) >5 and <10, N=9, median (95% CI)","36.29 (21.29, 53.14) weeks"
same,CBR Week 24,"[1]; FAS subgroup Ki67 index (%) Unknown, 0/1",0.0 (0/1) %
same,Median time PFS,"[1]; FAS subgroup Ki67 index (%) Unknown, N=1, 95% CI NC",12.14 weeks
same,CBR Week 24,"[1]; FAS subgroup Ki67 index (%) ≤ 2, 5/8",62.5 (5/8) %
same,CBR Week 24,"[1]; FAS subgroup Ki67 index (%) ≥10 and <20, 0/2",0.0 (0/2) %
same,Median time PFS,"[1]; FAS subgroup Ki67 index (%) ≥10 and <20, N=2, median (95% CI)","12.07 (12.00, 12.14) weeks"
same,CBR Week 24,"[1]; FAS subgroup Sex Female, 6/9",66.7 (6/9) %
same,Median time PFS,"[1]; FAS subgroup Sex Female, N=9, median (95% CI)",53.14 weeks
same,CBR Week 24,"[1]; FAS subgroup Sex Male, 12/19",63.2 (12/19) %
same,Median time PFS,"[1]; FAS subgroup Sex Male, N=19, median (95% CI)","36.14 (12.29, 49.14) weeks"
same,CBR Week 24,"[1]; FAS subgroup primary tumor site Foregut (except for pancreas), 0/1",0.0 (0/1) %
same,Median time PFS,"[1]; FAS subgroup primary tumor site Foregut (except for pancreas), N=1, 95% CI NC",12.00 weeks
same,CBR Week 24,"[1]; FAS subgroup primary tumor site Hindgut, 2/8",25.0 (2/8) %
same,Median time PFS,"[1]; FAS subgroup primary tumor site Hindgut, N=8, median (95% CI)","22.65 (12.14, 49.14) weeks"
same,CBR Week 24,"[1]; FAS subgroup primary tumor site Midgut, 2/2",100.0 (2/2) %
same,CBR Week 24,"[1]; FAS subgroup primary tumor site Other/ Unknown, 4/5",80.0 (4/5) %
same,Median time PFS,"[1]; FAS subgroup primary tumor site Other/ Unknown, N=5, median (95% CI)",36.14 weeks
same,CBR Week 24,"[1]; FAS subgroup primary tumor site Pancreas, 10/12",83.3 (10/12) %
same,Median time PFS,"[1]; FAS subgroup primary tumor site Pancreas, N=12, median (95% CI)","36.79 (24.14, 59.43) weeks"
same,CBR Week 24,"[1]; FAS subgroup prior treatment for NET Absent, 6/6",100.0 (6/6) %
same,CBR Week 24,"[1]; FAS subgroup prior treatment for NET Present, 12/22",54.5 (12/22) %
same,Median time PFS,"[1]; FAS subgroup prior treatment for NET Present, N=22, median (95% CI)","36.22 (12.29, 49.14) weeks"
same,CBR Week 24,"[1]; FAS subgroup progressive disease at baseline Absent, 13/17",76.5% (13/17)
same,Median time PFS,"[1]; FAS subgroup progressive disease at baseline Absent, N=17, median (95% CI)",53.14 weeks
same,CBR Week 24,"[1]; FAS subgroup progressive disease at baseline Present, 5/11",45.5% (5/11)
same,Median time PFS,"[1]; FAS subgroup progressive disease at baseline Present, N=11, median (95% CI)","25.14 (12.00, 37.14) weeks"
same,patients without increase in sum of diameters of target lesion at best time point,"[1]; FAS, 16 of 28 patients",57.1%
same,patients with PR or SD as best overall response,"[1]; FAS, 22 of 28 patients",78.6%
same,ORR at Week 60,"[1]; FAS, 1 patient with PR at 60 weeks in extension study, 95% CI 0.1%, 18.3%",3.6%
same,median OS,[1]; Kaplan-Meier,not reached
same,Forty-eight weeks survival rate,[1]; Kaplan-Meier estimate,96.4%
same,median PFS,[1]; population with PD at baseline (11 patients),6.3 months
same,median PFS,"[1]; population with PD at baseline (11 patients), 95% CI 12.0, 37.1 weeks",25.1 weeks
same,median PFS,[1]; population without PD at baseline (17 patients),13.3 months
same,median PFS,"[1]; population without PD at baseline (17 patients), 95% CI 24.1 weeks, Not calculable",53.1 weeks
same,QOL transformed scores versus baseline,[2],did not differ significantly
